Two compounds from US20220202811A1, “TREATMENT FOR RETINOIC ACID RECEPTOR-RELATED ORPHAN RECEPTOR Ɣ (RORƔ)-DEPENDENT CANCERS” (The Regents of the University of California, priority 2019, published 2022) can be followed below.

The test system of assay [1] is primary patient-derived PDX202 pancreatic cancer cells. Briefly: PDX202 organoid assay. In kind it is cell-based, human. To be noted: 3 μM JTE-151 alone. As for the experimental part: Moreover, the anti-cancer effect of JTE-151 was determined in an organoid assay using pancreatic cancer cells derived from mice bearing primary patient-derived xenografts.
For another assay, the system named is pancreatic cancer cell. Briefly: in vivo tumor growth, antagonists of Table 2. Also noted: species or system mouse. The note with it: extent of growth suppression relative to control.
For assay [2], the system named is organoids derived from adenosquamous tumors. The assay can be described thus: adenosquamous tumor organoids (Msi2-Cre^ER/LSL-Myc). Format: cell-based, mouse. The text has this: A new Msi2-Cre^ER mouse model of aggressive pancreatic cancer was created, in which Cre is driven off of the Msi2 promoter and can be conditionally triggered by tamoxifen delivery. This Msi2-Cre^ER driver can be crossed into mice bearing distinct mutations such as Ras (leading to myeloproliferative neoplasia), p53, or Myc. When the Msi2-Cre^ER driver was crossed into an LSL-MyC^T58A model developed by Dr. Robert Wechsler-Reya at SBP/Rady, La Jolla, Calif. (Mollaoglu et al., 2017) (FIG. 79), it produced multiple cancer types including small cell lung cancer, choroid plexus tumors, and early stage kidney tumors.

Assay [3] concerns autochthonous tumor-bearing KP^f/fC mice. Briefly: autochthonous KP^f/fC survival study.

Take `Cc1ccc(NC(=O)C[C@H](CCC(=O)O)c2noc([C@H]3C[C@@H](CC(C)(C)C)C3)c2C2CC2)c(Cl)c1` [JTE-151, (4S)-6-[(2-chloro-4-methylphenyl)amino]-4-{4-cyclopropyl-5-[cis-3-(2,2-dimethylpropyl)cyclobutyl]isoxazol-3-yl}-6-oxohexanoic acid]: the organoid growth result in assay [1] is “inhibited”.

For `OC(c1ccc(-c2ccc(CN3CCN(Cc4ccncc4)CC3)cc2)c(F)c1)(C(F)(F)F)C(F)(F)F` [SR2211], the “in vivo tumor growth” value in the assay on pancreatic cancer cell is on record as “✓✓ (dose response observed; growth suppressed by less than 4-fold relative to control)”. For the same compound, the sensitivity of organoids entry in assay [2] is “sensitive”. For the same compound, the results for the mice alive in assay [3] (25 days after the initiation of treatment) and in assay [3] (45 days after treatment initiation) were 75% and 50%, respectively. For the same compound, in assay [3] (SR2211 vs vehicle), the Hazard ratio was found to be 0.16. In assay [3] (treated daily from 8 weeks of age until moribund), the median survival was found to be 38.5 days. Further, the “decreased risk of death” value in assay [3] (vs vehicle) was found to be 6 fold.
